Laboratory results: ChEMBL document CHEMBL1140429, “Conversion of the potent delta-opioid agonist H-Dmt-Tic-NH-CH(2)-bid into delta-opioid antagonists by N(1)-benzimidazole alkylation(1)” (J Med Chem, 2005)

Legend:
Mu-type opioid receptor [1] = molecular target: Mu-type opioid receptor (Cavia porcellus, UniProt P97266); test: Functional bioactivity against mu opioid receptor in guinea-pig ileum; format: tissue-based
[2] = molecular target: Delta-type opioid receptor (Mus musculus, UniProt P32300); test: Functional bioactivity against delta opioid receptor in mouse vas deferens; format: tissue-based; settings: for Kb: read-out: pA2 (converted)
Delta-type opioid receptor (Mus musculus, UniProt P32300), sequence (P32300 whole entry): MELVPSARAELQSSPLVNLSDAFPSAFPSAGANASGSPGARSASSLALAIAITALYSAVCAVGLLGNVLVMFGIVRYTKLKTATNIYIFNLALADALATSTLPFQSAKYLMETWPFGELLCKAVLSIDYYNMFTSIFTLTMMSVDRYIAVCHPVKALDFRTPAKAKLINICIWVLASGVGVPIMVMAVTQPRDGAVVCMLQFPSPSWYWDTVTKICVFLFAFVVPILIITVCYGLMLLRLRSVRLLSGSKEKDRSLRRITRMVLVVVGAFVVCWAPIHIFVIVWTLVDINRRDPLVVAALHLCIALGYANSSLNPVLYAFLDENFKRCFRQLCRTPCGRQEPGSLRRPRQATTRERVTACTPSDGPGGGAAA

Mu-type opioid receptor [3] = molecular target: Mu-type opioid receptor (Rattus norvegicus, UniProt P33535); test: Displacement of [3H]DAMGO from rat mu opioid receptor in brain P2 synaptosomes; format: subcellular
Mu-type opioid receptor (Rattus norvegicus, UniProt P33535), sequence (P33535 whole entry): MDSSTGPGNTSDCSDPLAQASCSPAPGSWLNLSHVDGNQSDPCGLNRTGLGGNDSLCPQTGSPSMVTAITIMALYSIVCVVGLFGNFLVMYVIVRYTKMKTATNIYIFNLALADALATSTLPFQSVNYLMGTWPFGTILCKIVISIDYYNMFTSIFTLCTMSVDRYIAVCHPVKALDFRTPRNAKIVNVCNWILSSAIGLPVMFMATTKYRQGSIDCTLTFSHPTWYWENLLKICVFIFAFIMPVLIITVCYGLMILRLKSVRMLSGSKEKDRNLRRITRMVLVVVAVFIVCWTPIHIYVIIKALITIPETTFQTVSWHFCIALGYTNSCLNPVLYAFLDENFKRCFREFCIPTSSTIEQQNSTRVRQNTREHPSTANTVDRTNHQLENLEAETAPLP

[4] = molecular target: Delta-type opioid receptor (Rattus norvegicus, UniProt P33533); test: Displacement of [3H]deltorphin II from rat delta opioid receptor in brain P2 synaptosomes; format: subcellular
Delta-type opioid receptor (Rattus norvegicus, UniProt P33533), sequence (P33533 whole entry): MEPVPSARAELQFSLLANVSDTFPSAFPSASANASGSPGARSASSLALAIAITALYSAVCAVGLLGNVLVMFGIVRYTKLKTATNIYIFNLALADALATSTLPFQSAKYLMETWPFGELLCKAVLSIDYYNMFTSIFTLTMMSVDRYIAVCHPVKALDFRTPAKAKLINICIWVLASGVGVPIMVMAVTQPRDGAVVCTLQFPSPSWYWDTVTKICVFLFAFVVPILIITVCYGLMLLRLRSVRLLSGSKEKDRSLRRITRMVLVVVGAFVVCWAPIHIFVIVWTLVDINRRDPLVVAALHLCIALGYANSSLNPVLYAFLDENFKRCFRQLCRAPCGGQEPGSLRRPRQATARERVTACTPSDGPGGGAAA

Mu-type opioid receptor (Cavia porcellus, UniProt P97266), sequence (P97266 whole entry): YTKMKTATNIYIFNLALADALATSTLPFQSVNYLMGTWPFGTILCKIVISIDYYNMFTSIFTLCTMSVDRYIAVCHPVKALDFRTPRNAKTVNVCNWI

Cc1cc(O)cc(C)c1C[C@H](N)C(=O)N1Cc2ccccc2C[C@H]1C(=O)NCc1nc2ccccc2n1CC1CC1
IC50 (Mu-type opioid receptor [1]): 64 nM
IC50 [2]: Not Active
Kb [2]: 0.339 nM
Ki (Mu-type opioid receptor [3]): 0.52 nM
Ki [4]: 0.36 nM

CCOC(=O)Cn1c(CNC(=O)[C@@H]2Cc3ccccc3CN2C(=O)[C@@H](N)Cc2c(C)cc(O)cc2C)nc2ccccc21
IC50 (Mu-type opioid receptor [1]): 30 nM
IC50 [2]: Not Active
Kb [2]: 0.17 nM
Ki (Mu-type opioid receptor [3]): 1.42 nM
Ki [4]: 0.12 nM

C=CCn1c(CNC(=O)[C@@H]2Cc3ccccc3CN2C(=O)[C@@H](N)Cc2c(C)cc(O)cc2C)nc2ccccc21
IC50 (Mu-type opioid receptor [1]): 72 nM
IC50 [2]: Not Active
Kb [2]: 0.457 nM
Ki (Mu-type opioid receptor [3]): 0.44 nM
Ki [4]: 0.13 nM

Cc1cc(O)cc(C)c1C[C@H](N)C(=O)N1Cc2ccccc2C[C@H]1C(=O)NCc1nc2ccccc2n1CC(=O)O
IC50 (Mu-type opioid receptor [1]): 3190 nM
IC50 [2]: Not Active
Kb [2]: 0.269 nM
Ki (Mu-type opioid receptor [3]): 6.92 nM
Ki [4]: 0.021 nM

Cc1cc(O)cc(C)c1C[C@H](N)C(=O)N1Cc2ccccc2C[C@H]1C(=O)NCc1nc2ccccc2n1C
IC50 (Mu-type opioid receptor [1]): 450 nM
IC50 [2]: Not Active
Kb [2]: 0.0724 nM
Ki (Mu-type opioid receptor [3]): 0.83 nM
Ki [4]: 0.16 nM

Cc1cc(O)cc(C)c1C[C@H](N)C(=O)N1Cc2ccccc2C[C@H]1C(=O)NCc1nc2ccccc2n1Cc1ccccc1
IC50 (Mu-type opioid receptor [1]): 245 nM
IC50 [2]: Not Active
Kb [2]: 3.02 nM
Ki (Mu-type opioid receptor [3]): 1.02 nM
Ki [4]: 0.2 nM

CC(C)[C@H](NC(=O)[C@H](CC(=O)O)NC(=O)[C@H](Cc1ccccc1)NC(=O)[C@@H](C)NC(=O)[C@@H](N)Cc1ccc(O)cc1)C(=O)N[C@H](C(=O)NCC(N)=O)C(C)C [DELTORPHIN C]
IC50 (Mu-type opioid receptor [1]): 1300 nM

C[C@@H](NC(=O)[C@@H](N)Cc1ccc(O)cc1)C(=O)N[C@@H](Cc1ccccc1)C(=O)NCC(=O)N[C@@H](Cc1ccc(O)cc1)C(=O)N1CCC[C@H]1C(=O)N[C@@H](CO)C(N)=O [DERMORPHIN]
IC50 (Mu-type opioid receptor [1]): 1.9 nM
